Earlier results on two compounds are cited in article PMC12128972, “TYRA-300, an FGFR3-selective inhibitor, promotes bone growth in two FGFR3-driven models of chondrodysplasia” (JCI Insight, 2025).

For data set [1], the system named is Fgfr3^G374R mouse model of ACH. As to conditions: treatment initiated 1 day after birth; cited from earlier work.
Data set [2] has as its system growth plate chondrocytes of Fgfr3^Y367C/+ mice. The conditions noted are these: previous studies; cited from earlier work.
Data set [3] deals with Fgfr3^Y367C/+ mouse model, which mimics the phenotype of ACH. The arrangement: method as in PMID 27064282, PMID 23200862. As to conditions: infigratinib 2 mg/kg, starting at 7 days of age for 10 days; cited from earlier work.
The test system of data set [4] is children with ACH. Further details: method as in earlier work. As to conditions: children with ACH aged 5-12 years, once daily s.c.; 95% CI 1.22-1.97; cited from earlier work.

As to `CCN1CCN(c2ccc(Nc3cc(N(C)C(=O)Nc4c(Cl)c(OC)cc(OC)c4Cl)ncn3)cc2)CC1` [infigratinib], in data set [1], the “premature fusion of the intersphenoidal synchondrosis” value is reported as “did not rescue premature fusion”. In addition, the “type X collagen staining in the HZCs” value in data set [2] is recorded as “partial restoration”. Also, the “bone growth compared with vosoritide (800 μg/kg)” value in data set [3] is “more bone growth than vosoritide”.
Turning to “vosoritide: C-natriuretic peptide (CNP) analog that is a once daily subcutaneous injection (PGQEHPNARKYKGANKKGLSKGCFGLKLDRIGSMSGLGC; chains of the INN, looked up)”, the “increase from baseline of average linear growth velocity greater than placebo” value in data set [4] is reported as 1.57 cm/year. Besides, in data set [2], the “type X collagen staining in the HZCs” value was “partial restoration”.
